In ChEMBL document CHEMBL1147843, “Synthesis of a novel C2-aryl pyrrolo[2,1-c][1,4]benzodiazepine-5,11-dione library: effect of C2-aryl substitution on cytotoxicity and non-covalent DNA binding” (2007) one finds ΔTm, growth and GI50 data, which are given here for 8 molecules.

In general, ΔTm refers to the change in melting temperature against a reference sample. As usually defined, the GI50 is the concentration giving 50% growth inhibition.

For experiment [1], the system named is DNA. The experiment can be described thus: Binding affinity to calf thymus DNA at 20 uM after 72 hrs by thermal denaturation assay. It is filed as nucleic-acid assay. The following applies: Bos taurus.
Experiment [2] relates to DNA. The experiment can be described thus: Binding affinity to calf thymus DNA at 20 uM after 4 hrs by thermal denaturation assay. It is filed as nucleic-acid assay. The conditions noted are these: Bos taurus.
For experiment [3], the system named is DNA. The experiment can be described thus: Binding affinity to calf thymus DNA at 20 uM after 18 hrs by thermal denaturation assay. Format: nucleic-acid assay. The conditions noted are these: Bos taurus.
Experiment [4] has as its system MCF7. As to the kind of experiment: Cytotoxicity against human MCF7 cells assessed as cell growth at 50 uM after 48 hrs by Alamar Blue assay relative to control. It is filed as functional. The conditions noted are these: MCF7, 48 h, read-out: Activity.
In experiment [5] the test system is NCI-H460. The experiment can be described thus: Cytotoxicity against human NCI-H460 cells assessed as cell growth at 50 uM after 48 hrs by Alamar Blue assay relative to control. Format: functional. The conditions noted are these: NCI-H460, 48 h, read-out: Activity. (In general: Resazurin is reduced to fluorescent resorufin, in cell work by metabolically active cells.)

The subject of experiment [6] is NCI. The experiment can be described thus: Growth inhibition of human NCI 60 cells after 48 hrs by sulforhodamine B assay relative to control. Format: functional. In general terms: Sulforhodamine B stains cellular protein and so reports cell mass.
Experiment [7] has as its system SF-268. As to the kind of experiment: Cytotoxicity against human SF268 cells assessed as cell growth at 50 uM after 48 hrs by Alamar Blue assay relative to control. It is filed as functional. The conditions noted are these: SF-268, 48 h, read-out: Activity.
For experiment [8], the system named is A498. As to the kind of experiment: Growth inhibition of human A498 cells after 48 hrs by sulforhodamine B assay relative to control. Format: functional. The following applies: A498, 48 h.

Turning to `O=Cc1ccc(C2=CN3C(=O)c4ccccc4NC(=O)[C@@H]3C2)cc1`, the figures for the thermal shift (ΔTm) in experiment [1], in experiment [2] and in experiment [3] were 1.5 °C, 1.5 °C and 1.4 °C, respectively.
For `Nc1ccc(C2=CN3C(=O)c4ccccc4NC(=O)[C@@H]3C2)cc1`, the ΔTm in experiment [1], in experiment [2] and in experiment [3] was 1.1 °C throughout.
With `O=C1Nc2ccccc2C(=O)N2C=C(c3ccc(Br)cc3)C[C@@H]12`, the growth at 50 µM in experiment [4] turned out to be 61%; in experiment [5], 20%; in experiment [7], 109%. The ΔTm was found to be 2.1 °C in experiment [1], 2 °C in experiment [2] and 2 °C in experiment [3]. In addition, the GI50 in experiment [6] was 7.41 µM; in experiment [8], 0.51 µM.
As to `O=C1Nc2ccccc2C(=O)N2C=C(c3cccc4ccccc34)C[C@@H]12`, the growth at 50 µM in experiment [4] is 42%; in experiment [5], 29%; in experiment [7], 73%. Also, the ΔTm in experiment [1] stood at 2.4 °C; in experiment [2], 2.3 °C; in experiment [3], 2.3 °C. The results for the GI50 in experiment [6] and in experiment [8] were 14.8 µM and 3.16 µM, respectively.
For the molecule `O=C1Nc2ccccc2C(=O)N2C=C(c3ccc(Cl)c(Cl)c3)C[C@@H]12`, the growth at 50 µM in experiment [4] stood at 51%; in experiment [5], 5%; in experiment [7] it was 86%. The ΔTm in experiment [1] was 2.2 °C; in experiment [2], 2.1 °C; in experiment [3] it was 2.2 °C. Besides, the GI50 in experiment [6] is 46.8 µM; in experiment [8], above 50 µM.
Take `O=C1Nc2ccccc2C(=O)N2C=C(c3ccccc3)C[C@@H]12`: the ΔTm came to 1.6 °C in experiment [1], 1.5 °C in experiment [2] and 1.5 °C in experiment [3].
Take `O=C1Nc2ccccc2C(=O)N2C=C(c3cccc([N+](=O)[O-])c3)C[C@@H]12`: the figures for the ΔTm in experiment [1], in experiment [2] and in experiment [3] were 1 °C, 0.9 °C and 1 °C, respectively.
As for `Cc1ccc2c(c1O)NC(O)C1CC(/C=C/C(N)=O)=CN1C2=O` (stereo not drawn) [ANTHRAMYCIN], the GI50 amounted to 0.029 µM in experiment [6] and 0.195 µM in experiment [8].
